“Also recorded” adds a separate entry of the source.
How the values were obtained:
[1] = tested on: rat trachea contraction induced by KCl depolarization; test: KCl-induced rat trachea contraction; set-up: species or system rat (male SHR, Okamoto-Aoki); conditions: for activity at 1 µM: Rattus norvegicus, 40 min, read-out: Contraction (% max.); for activity on KCl-induced trachea contraction (in words): final concentration 1.0 μM
Procedure, shortened: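 Spiral trachea strips from male SHR rats were held in Krebs-Ringer (pH 7.4, 95/5 O2/CO2, 37±1° C) under 1.5–2 g tension, and contraction was measured isometrically. After a 65 mM KCl plateau, drugs (1.0 μM final) were added. Residual contraction at 40 min was expressed as % of the initial KCl response.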

[2] = tested on: calcium channel binding site for [^3 H]-Nitrendipine (rat brain membranes); test: [^3 H]-Nitrendipine binding to rat brain membranes; set-up: species or system rat (male Wistar); conditions: Table 1a; for Specifically bound [^3 H]-Nitrendipine % of control value: compound concentration 1.0 μM; for Bound ^3 H at 1.0 μM / Bound ^3 H at 0.1 μM: ratio of [^3 H]-Nitrendipine bound at 1.0 and 0.1 μM compound
Procedure, shortened: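 Cerebral cortex membranes from male Wistar rats (400 μg protein/tube) were incubated with [3H]-nitrendipine and compounds in 50 mM Tris-HCl pH 7.4/150 mM NaCl/1 mM CaCl2 under subdued light, ethanol ≤0.1%. Bound radioligand was collected by GF/B filtration and counted; data are percent specific binding versus control, with compounds judged at 1.0 μM final.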

[3] = tested on: mean blood pressure in rat; test: Acute intravenous hypotensive activity in anesthetized rats; type: in vivo, rat (male Wistar); conditions: for hypotensive activity (in words): acute i.v., Table 4
Procedure: Male Wistar rats were anesthetized with Pentobarbital (Nembutal, 60 mg/kg i.p.) and heparinized (5 mg/kg i.p.). After tracheotomy the right carotid was cannulated (catheter PE 50); blood pressure was measured with a pressure transducer (Statham P 23 db) and recorded on a polygraph (Beckman).
Animals received 0.5 and 1.5 mg/kg of the test compounds. Less than 100 μl of test compounds dissolved in 0.9% saline were injected in the jugular vein. Highly water insoluble compounds were suspended in 2% Tween-80. Injection of the vehicle alone had no detectable hypotensive effect.
Results presented are expressed as percent decrease in initial mean blood pressure (Mean±SEM).

[4] = tested on: isolated rat atrium (atrium rate); test: Chronotropic activity in isolated rat atrium; set-up: species or system rat (male SHR, Okamoto-Aoki); conditions: 5.0 × 10^-6 M, mean ± SEM, read-out: Decrease in atrium rate (% pretest)
Procedure: Spontaneously hypertensive male rats (SHR) (Okamoto-Aoki strain) were anesthetized with Pentobarbital (Nembutal Abbott, 60 mg/kg, i.p.). The hearts were quickly excised and both atria were dissected free from adjacent cardiac tissues. The atria were immediatly placed in a 50 ml Krebs-Ringer bath with the following composition (mM): NaCl, (120.0); KCl, (5.63); CaCl2, (2.0); MgCl2, (2.10); NaHCO3, (25.0); Glucose, (9.7) (pH 7.4). The solution was continuously bubbled with a O2 /CO2 mixture (95/5) and maintained at 37±1° C. The atrium was fixed to an optical displacement transducer (IITC, USA) under a resting tension of 1 g in order to measure atrial rate. The preparation was allowed to equilibrate for 40 min then cumulative dose-response curves were determined for each test compound (0.5-5 μMole/l). Maximum effect was normally obtained within 30-40 min. for each concentration.
Stock solutions of the 1,3-diphosphonates were generally prepared in 0.9% saline and water insoluble compounds were prepared in 50% ethanol. […] When tested at the concentration of 5.0×10^-6 M a decrease in atrium rate of more than 5% was considered as significant.
All data are presented as % decrease of initial atrium rate (mean values±SEM). A potent negative chronotropic effect was found with all compounds tested (table 3).

[5] = tested on: slow inward current of the action potential; conditions: classical calcium antagonists; cited from earlier work
[6] = tested on: drug receptor sites associated with calcium channels; conditions: known calcium antagonists; cited from earlier work
[7] = Rattus norvegicus, iv, read-out: Decrease in mean blood pressure (% pretest)

| SMILES | activity at 1 µM [1] [%] | activity on KCl-induced trachea contraction (in words) [1] | modulation of [^3 H]-Nitrendipine binding (in words) [2] | Specifically bound [^3 H]-Nitrendipine % of control value [2] | Bound ^3 H at 1.0 μM / Bound ^3 H at 0.1 μM [2] | inhibition in vivo at 0.5 mg/kg [3, 7] [%] | inhibition in vivo at 1.5 mg/kg [3, 7] [%] | inhibition at 5 µM [4] [%] | hypotensive activity (in words) [3] | inhibition of slow inward current (in words) [5] | inhibition in vivo at 1 mg/kg ([3]; Rattus norvegicus, iv, 1.0 mg/kg, known hypotensive drugs, mean ± SEM, read-out: Decrease in mean blood pressure (% pretest)) [%] | effect on [^3 H]-Nitrendipine binding (in words) [6] |
| --- | --- | --- | --- | --- | --- | --- | --- | --- | --- | --- | --- | --- |
| CC(C)OP(=O)(CC(Cc1ccccc1)CP(=O)(OC(C)C)OC(C)C)OC(C)C [Compound 55, Tetraisopropyl 2-benzyl-1,3-propylidenephosphonate] | 73 ± 1 | potent pharmacological activity | activators | 156 % of control value | 1.292 | 28.2 ± 0.7 | 31.1 ± 6.4 | 17.5 ± 4.6 |  |  |  |  |
| CCCCOP(=O)(CC(Cc1ccccc1)CP(=O)(OCCCC)OCCCC)OCCCC [Compound 73, Tetrabutyl 2-benzyl-1,3-propylidenediphosphonate] | 46.2 ± 1.8 | potent pharmacological activity | strong inhibitors | 81 % of control value | 0.862 | 50 ± 3.8 |  | 18.8 ± 11.2 | hypotensive activity superior to that of classical hypotensive drugs and of the calcium antagonists used as references |  |  |  |
| CCCCOP(=O)(CC(CCc1ccccc1)CP(=O)(OCCCC)OCCCC)OCCCC [Compound 74] | 35 ± 1.2 | potent pharmacological activity |  | 17 % of control value | 0.380 | 50.8 ± 2.7 |  | 8.3 ± 4.5 | hypotensive activity superior to that of classical hypotensive drugs and of the calcium antagonists used as references |  |  |  |
| CCCCOP(=O)(CC(CCCc1ccccc1)CP(=O)(OCCCC)OCCCC)OCCCC [Compound 75, Tetrabutyl 2-(3-phenylpropyl)-1,3-propylidenediphosphonate] | 70 ± 3 | potent pharmacological activity | strong inhibitors | 22 % of control value | 0.354 | 22.8 ± 1.6 |  | 14.8 ± 4.8 |  |  |  |  |
| CCCCOP(=O)(CC(Cc1cccc2ccccc12)CP(=O)(OCCCC)OCCCC)OCCCC [Compound 83] | 62.5 ± 11.5 | potent pharmacological activity | strong inhibitors | 36 % of control value | 0.548 | 10.6 ± 0.5 |  | 4.4 ± 0.6 |  |  |  |  |
| COc1ccc([C@@H]2Sc3ccccc3N(CCN(C)C)C(=O)[C@@H]2OC(C)=O)cc1 [Diltiazem] |  |  |  |  |  |  |  |  |  | inhibit with very high specificity the slow inward current of the action potential | 47.9 | stimulators; also recorded: enhances [^3 H]Nitrendipine binding |
| COC(=O)C1=C(C)NC(C)=C(C(=O)OC)C1c1ccccc1[N+](=O)[O-] [Nifedipine] |  |  |  |  |  |  |  |  |  | inhibit with very high specificity the slow inward current of the action potential |  |  |
